Columns and labels:
Assay type in all cases: cell-based
P-selectin-IgG = test: Binding inhibitory activity test: HL-60 cell binding to immobilized P-selectin-IgG; settings: 0.3 mM test compound; HL-60 cells; 20 ng P-selectin-IgG per well; average of 5 wells ± SE
L-selectin-IgG = test: Binding inhibitory activity test: HL-60 cell binding to immobilized L-selectin-IgG; settings: 0.3 mM test compound; HL-60 cells; 100 ng L-selectin-IgG; average of 5 wells ± SE
Method: [The source words this procedure for another target and says it was used here with some conditions changed.] (§1) The binding inhibitory activity of the test compound was measured in terms of the inhibition of binding of premyelocytic leukemia HL-60 cells to immobilized recombinant selectin-IgG fusion proteins by addition of the test compound to the binding reaction system, in accordance with the method described in the above-identified reference.
(§2) Stated more specifically, 20 ng of purified P-selectin-IgG was added to each well of a microtiter plate (96 wells, Nunc Maxisorp) and immobilized. Phosphate buffered saline (PBS) was added to each well to make a total volume of 100 μl and the plate was allowed to stand at 4° C. overnight. The excess solution was removed by aspiration, and non-specific binding sites were blocked with PBS containing 1% bovine serum albumin (BSA) at room temperature for 1 hour. After removal of the blocking solution by aspiration, 0.3 mM of the test compound as dissolved in 100 μl of a binding buffer (RPMI1640), and 10^6 cells/ml of HL-60 cells as suspended in 100 μl of the binding buffer were added to each well. The plate was centrifuged at 500 rotations per minute for 2 minutes at room temperature, and each well was filled with the binding buffer. The plate was carefully sealed with an adhesive tape so as to avoid trapping any air bubbles. The plate was turned upside down and centrifuged at 500 rotations per minute for 10 minutes to remove unbound HL-60 cells. The adhesive tape was peeled off and the buffer was removed by aspiration. The number of cells bound/well was determined using a cell counting kit (WST-1 assay kit, product of Dojin Kagaku K.K.) (M. Ishiyama. M. Shiga, M. Mizoguchi and P. He, Chem. Pharm. Bull., 41, 1118-1122 (1994)).
(§3) The binding inhibition (%) was calculated from the number (M) of bound cells achieved in the test using the test compound and the number (N) of bound cells achieved in the comparative test not using the test compound, according to the following equation:
(§4) Binding inhibition (%)=100×(N−M)/N […]
(§5) The data were expressed as an average value of 5 wells±standard error (SE).

E-selectin-IgG = test: Binding inhibitory activity test: HL-60 cell binding to immobilized E-selectin-IgG; settings: 0.3 mM test compound; HL-60 cells; 40 ng E-selectin-IgG; average of 5 wells ± SE
Method: [The source words this procedure for another target and says it was used here with some conditions changed.] as §1, §2, §3, §4, §5

Molecule	Binding inhibition (%) P-selectin (P-selectin-IgG) [%]	Binding inhibition (%) L-selectin (L-selectin-IgG) [%]	Binding inhibition (%) E-selectin (E-selectin-IgG) [%]
CCCCCCCCCCCCCCC(CCCCCCCCCCCCCC)CO[C@@H]1O[C@H](CO)[C@H](O)[C@H](CC(=O)O)[C@H]1O [Compound of the invention, 2-(tetradecyl)hexadecyl 3-deoxy-3-C-(carboxymethyl)-β-D-glactopyranoside]	79 ± 3	92 ± 3	12 ± 8
CCCCCCCCCCCCCCC(CCCCCCCCCCCCCC)CO[C@@H]1O[C@H](CO)[C@H](O)[C@H](OS(=O)(=O)O)[C@H]1O [Comparative compound, 2-(tetradecyl)hexadecyl 3-O-sulfo-β-D-galactopyranoside]	6 ± 3	13 ± 3	0 ± 5
sialyl Lewis-x [SLe^x]	3 ± 6	0 ± 5	0 ± 4

— patent US6503885B1, “Carboxymethylgalactose derivatives” (Otsuka Pharmaceutical Co., Ltd., priority 1998, dated 2003)
